Our source for the GI50 and TGI values is PubChem BioAssay (NCI).

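96-well plates; 48 h exposure; 5 concentrations. Endpoints by linear interpolation between flanking doses. Not reached: highest tested concentration assigned. At the GI50, growth is halved. At the TGI there is no net growth.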

Among the test systems are MDA-MB-435; TK-10 renal; SF-295 CNS; SR leukemia; A549 NSCLC; HT29 colon; SN12C renal; NCI-H23 lung; SNB-75 CNS; RPMI-8226 leukemia.
Holding throughout (assay): NCI anticancer screen, dose series, 48 h

On to `Cc1cc2nc(C(Cl)Cl)nc(-c3ccc(Cl)cc3)n2n1`, for which the GI50 in the assay on MDA-MB-435 is 1.26 µM; in the assay with TK-10 renal, 1.85 µM; with SF-295 CNS, 1.3 µM; in the assay on SR leukemia, 0.372 µM; in the assay on A549 NSCLC, 0.448 µM; with HT29 colon it was 0.36 µM. Further, the GI50 in the assay on SN12C renal is 2.64 µM; in the assay on NCI-H23 lung, 0.479 µM; in the assay with SNB-75 CNS it was 1.1 µM; with RPMI-8226 leukemia, 1.36 µM. The TGI is 2.79 µM in the assay with MDA-MB-435; 5.21 µM in the assay with TK-10 renal; 4.75 µM in the assay on SF-295 CNS; > 21.1 µM in the assay with SR leukemia; 3.28 µM with A549 NSCLC; 3.99 µM in the assay on HT29 colon. Besides, the TGI is > 100 µM in the assay on SN12C renal, 2.42 µM in the assay with NCI-H23 lung, 4.34 µM in the assay on SNB-75 CNS and 6.45 µM in the assay with RPMI-8226 leukemia.

Take `CC(C)c1ccc(C(C)C(=O)N(CC2=C(C(C)c3ccccn3)c3ccccc3C2)C(C)C)cc1` (stereo not given): the GI50 with MDA-MB-435 was 3.73 µM; with TK-10 renal it was 4.81 µM; in the assay on SF-295 CNS, 2.3 µM; in the assay with SR leukemia it was 2.67 µM; in the assay on A549 NSCLC it was 3.85 µM; in the assay with HT29 colon, 1.6 µM. Also, the GI50 is 1.88 µM with SN12C renal, 3.35 µM in the assay on NCI-H23 lung, 3.17 µM in the assay with SNB-75 CNS and 2.32 µM in the assay with RPMI-8226 leukemia. Moreover, the TGI is 55.6 µM with MDA-MB-435; > 100 µM with TK-10 renal; 7.65 µM in the assay on SF-295 CNS; 9.58 µM in the assay on SR leukemia; > 100 µM in the assay on A549 NSCLC; 3.77 µM with HT29 colon. Also, the TGI is 3.51 µM in the assay with SN12C renal, 53.6 µM in the assay on NCI-H23 lung, > 100 µM with SNB-75 CNS and 7.52 µM in the assay on RPMI-8226 leukemia.

For the molecule `Cc1ccc(-c2nnc(-c3ccc4ccccc4c3)o2)cc1`, the TGI in the assay on MDA-MB-435 was > 100 µM; with TK-10 renal it was > 60.6 µM; with SF-295 CNS, > 100 µM; in the assay with SR leukemia, > 68.4 µM; with A549 NSCLC it was > 100 µM; with HT29 colon, > 100 µM. Moreover, the TGI in the assay on SN12C renal is > 100 µM; in the assay on NCI-H23 lung, > 100 µM; with SNB-75 CNS, 82.7 µM; with RPMI-8226 leukemia, > 100 µM.
